Source: patent publication US20240122941A1, “THERAPY BASED ON SYNTHETIC LETHALITY IN SWI/SNF COMPLEX-DYSFUNCTION CANCER” (NATIONAL CANCER CENTER, priority 2020, published 2024)
Like-named read-outs stand apart in the source and are kept apart here.

Columns and labels:
[1] = tested on: DMS114 cells (small cell lung cancer derived, SMARCA2/A4 deficient); assay: Cell growth suppression experiment (CellTiter-Glo), DMS114 cells; assay type: cell-based; conditions: for IC50 / cell survival rate (%) at treatment with 10 μM, DMS114: DMS114 cells; for IC50: cultured for 6 days, CellTiter-Glo; for cell survival rate (%) at treatment with 10 μM, DMS114: 6 days; for cell growth suppression effect on DMS114 cells: result in words
[2] = tested on: 786-O cells (renal cancer derived, SMARCB1 wild-type); assay: Cell growth suppression experiment (CellTiter-Glo), 786-O cells; conditions: for cell survival rate (%) at treatment with 10 μM, 786-O: 10 μM (maximum treatment concentration), 3 days; for IC50: read-out: IC50 786-O
Experimental: (§1) G-401 cells and G-402 cells were cultured under the conditions of 5% CO2 at 37° C. in a 10% fetal bovine serum and 1% penicillin/streptomycin-containing McCoy's 5A medium. CHLA-06-ATRT cells were cultured under the conditions of 5% CO2 at 37° C. in a 10% B-27 supplement, 20 ng/mL EGF, 20 ng/mL FGF, and 1% penicillin/streptomycin-containing DMEM:F12 medium.

[3] = tested on: G-401 cells (malignant rhabdoid tumor derived, SMARCB1 deficient); assay: Cell growth suppression experiment (CellTiter-Glo), G-401 cells; conditions: for cell survival rate (%) at treatment with 10 μM, G-401: 10 μM (maximum treatment concentration), 3 days
Experimental: as §1

[4] = tested on: SMARCA2/A4 deficient cells, i.e., H23 cells, DMS114 cells, and TOV112D cells; assay: Cell growth suppression experiment, SMARCA2/A4 deficient cells (summary of Example 8); assay type: cell-based; conditions: H23, DMS114 and TOV112D cells versus H460 cells; result in words
Experimental: Cytotoxic activity of a CBP/P300 on SMARCA2/A4 deficient cells, i.e., H23 cells (pulmonary adenocarcinoma derived), TOV112D cells (small cell ovarian cancer derived), and DMS114 cells (small cell lung cancer derived), and SMARCA2/A4 wild-type cells, i.e., H460 cells (pulmonary adenocarcinoma derived) was compared.
H23 cells, TOV112D cells, DMS114 cells, and H460 cells were cultured under 5% CO2 conditions at 37° C. in a 10% fetal bovine serum and 1% penicillin/streptomycin-containing DMEM-F12 medium.
Cells were seed on a 96-well plate at 250 to 500 cells per well. […] After completion of culture, the cell survival rate was measured using CellTiter-Glo Luminescent Cell Viability Assay (Promega, G770).

[5] = tested on: H460 cells (pulmonary adenocarcinoma derived, SMARCA2/A4 wild-type); assay: Cell growth suppression experiment (CellTiter-Glo), H460 cells; assay type: cell-based; conditions: for cell survival rate (%) at treatment with 10 μM, H460 / viability at 10 µM: 6 days; for IC50: cultured for 6 days, CellTiter-Glo; for viability at 10 µM: read-out: cell survival rate (%) at treatment with 10 μM, H460;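 on all read-outs here: luminescent viability read-out, compound added one day after seeding at 0.1% final DMSO, cells grown in DMEM-F12 with 10% fetal bovine serum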
[6] = tested on: TOV112D cells (small cell ovarian cancer derived, SMARCA2/A4 deficient); assay: Cell growth suppression experiment (CellTiter-Glo), TOV112D cells; assay type: cell-based; conditions: for cell survival rate (%) at treatment with 10 μM, TOV112D: 6 days; for IC50: cultured for 6 days, CellTiter-Glo;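 on all read-outs here: luminescent viability read-out of TOV112D cells grown in DMEM-F12 with 10% fetal bovine serum, compound exposure starting one day after plating, DMSO at 0.1% final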
[7] = tested on: H23 cells (pulmonary adenocarcinoma derived, SMARCA2/A4 deficient); assay: Cell growth suppression experiment (CellTiter-Glo), H23 cells; assay type: cell-based; conditions: for cell survival rate (%) at treatment with 10 μM, H23: 6 days; for IC50: cultured for 6 days, CellTiter-Glo;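 on all read-outs here: compounds tested as CBP/P300 agents, added one day after plating in 96-well plates with DMEM-F12 plus 10% fetal bovine serum, 0.1% DMSO final, luminescent viability read-out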
[8] = tested on: JMU-RTK-2+SMARCB1 cells (JMU-RTK-2 cells overexpressing SMARCB1); assay: Selectivity in cell growth suppression, JMU-RTK-2+SMARCB1 cells
From the text: (§2) The cytotoxic activity of a CBP/P300 inhibitor on JMU-RTK-2 cells and JMU-RTK-2+SMARCB1 cells was compared.

[9] = tested on: JMU-RTK-2 cells (malignant rhabdoid tumor derived, SMARCB1 deficient); assay: Selectivity in cell growth suppression, JMU-RTK-2 cells
From the text: as §2

[10] = tested on: SMARCB1 deficient cells, i.e., G-401 cells, G-402 cells, and CHLA-06-ATRT cells; assay: Cell growth suppression experiment, SMARCB1 deficient cells (summary of Example 1); conditions: G-401, G-402 and CHLA-06-ATRT cells versus 786-O cells; result in words
Experimental: as §1

[11] = target: recombinant p300 (Homo sapiens (Human), UniProt Q09472); assay: HAT activity inhibiting experiment, SensoLyte HAT (p300) Assay Kit; assay type: biochemical; conditions: recombinant p300, acetyl-CoA, histone H3 peptide, fluorescence; read-out: HAT activity inhibition IC50
Experimental: 50 μL of Stop Solution was added to quench the reaction. 100 μL of p300 Developer solution diluted 50-fold with an assay buffer was added, and the mixture was incubated for 30 minutes at room temperature under shaded conditions.

[12] = 786-O cells, cultured for 3 days, CellTiter-Glo cell survival
[13] = read-out: IC50 G-401, G-401 cells, cultured for 3 days, CellTiter-Glo cell survival
[14] = read-out: JMU-RTK-2 + SMARCB1 IC50, JMU-RTK-2+SMARCB1 cells, cultured for 6 days, CellTiter-Glo
[15] = read-out: JMU-RTK-2 IC50, JMU-RTK-2 cells, cultured for 6 days, CellTiter-Glo
[16] = Homo sapiens, 786-0, 72 h, read-out: cell survival rate (%) at treatment with 10 μM, 786-O

Sequence of recombinant p300 (Q09472 whole entry): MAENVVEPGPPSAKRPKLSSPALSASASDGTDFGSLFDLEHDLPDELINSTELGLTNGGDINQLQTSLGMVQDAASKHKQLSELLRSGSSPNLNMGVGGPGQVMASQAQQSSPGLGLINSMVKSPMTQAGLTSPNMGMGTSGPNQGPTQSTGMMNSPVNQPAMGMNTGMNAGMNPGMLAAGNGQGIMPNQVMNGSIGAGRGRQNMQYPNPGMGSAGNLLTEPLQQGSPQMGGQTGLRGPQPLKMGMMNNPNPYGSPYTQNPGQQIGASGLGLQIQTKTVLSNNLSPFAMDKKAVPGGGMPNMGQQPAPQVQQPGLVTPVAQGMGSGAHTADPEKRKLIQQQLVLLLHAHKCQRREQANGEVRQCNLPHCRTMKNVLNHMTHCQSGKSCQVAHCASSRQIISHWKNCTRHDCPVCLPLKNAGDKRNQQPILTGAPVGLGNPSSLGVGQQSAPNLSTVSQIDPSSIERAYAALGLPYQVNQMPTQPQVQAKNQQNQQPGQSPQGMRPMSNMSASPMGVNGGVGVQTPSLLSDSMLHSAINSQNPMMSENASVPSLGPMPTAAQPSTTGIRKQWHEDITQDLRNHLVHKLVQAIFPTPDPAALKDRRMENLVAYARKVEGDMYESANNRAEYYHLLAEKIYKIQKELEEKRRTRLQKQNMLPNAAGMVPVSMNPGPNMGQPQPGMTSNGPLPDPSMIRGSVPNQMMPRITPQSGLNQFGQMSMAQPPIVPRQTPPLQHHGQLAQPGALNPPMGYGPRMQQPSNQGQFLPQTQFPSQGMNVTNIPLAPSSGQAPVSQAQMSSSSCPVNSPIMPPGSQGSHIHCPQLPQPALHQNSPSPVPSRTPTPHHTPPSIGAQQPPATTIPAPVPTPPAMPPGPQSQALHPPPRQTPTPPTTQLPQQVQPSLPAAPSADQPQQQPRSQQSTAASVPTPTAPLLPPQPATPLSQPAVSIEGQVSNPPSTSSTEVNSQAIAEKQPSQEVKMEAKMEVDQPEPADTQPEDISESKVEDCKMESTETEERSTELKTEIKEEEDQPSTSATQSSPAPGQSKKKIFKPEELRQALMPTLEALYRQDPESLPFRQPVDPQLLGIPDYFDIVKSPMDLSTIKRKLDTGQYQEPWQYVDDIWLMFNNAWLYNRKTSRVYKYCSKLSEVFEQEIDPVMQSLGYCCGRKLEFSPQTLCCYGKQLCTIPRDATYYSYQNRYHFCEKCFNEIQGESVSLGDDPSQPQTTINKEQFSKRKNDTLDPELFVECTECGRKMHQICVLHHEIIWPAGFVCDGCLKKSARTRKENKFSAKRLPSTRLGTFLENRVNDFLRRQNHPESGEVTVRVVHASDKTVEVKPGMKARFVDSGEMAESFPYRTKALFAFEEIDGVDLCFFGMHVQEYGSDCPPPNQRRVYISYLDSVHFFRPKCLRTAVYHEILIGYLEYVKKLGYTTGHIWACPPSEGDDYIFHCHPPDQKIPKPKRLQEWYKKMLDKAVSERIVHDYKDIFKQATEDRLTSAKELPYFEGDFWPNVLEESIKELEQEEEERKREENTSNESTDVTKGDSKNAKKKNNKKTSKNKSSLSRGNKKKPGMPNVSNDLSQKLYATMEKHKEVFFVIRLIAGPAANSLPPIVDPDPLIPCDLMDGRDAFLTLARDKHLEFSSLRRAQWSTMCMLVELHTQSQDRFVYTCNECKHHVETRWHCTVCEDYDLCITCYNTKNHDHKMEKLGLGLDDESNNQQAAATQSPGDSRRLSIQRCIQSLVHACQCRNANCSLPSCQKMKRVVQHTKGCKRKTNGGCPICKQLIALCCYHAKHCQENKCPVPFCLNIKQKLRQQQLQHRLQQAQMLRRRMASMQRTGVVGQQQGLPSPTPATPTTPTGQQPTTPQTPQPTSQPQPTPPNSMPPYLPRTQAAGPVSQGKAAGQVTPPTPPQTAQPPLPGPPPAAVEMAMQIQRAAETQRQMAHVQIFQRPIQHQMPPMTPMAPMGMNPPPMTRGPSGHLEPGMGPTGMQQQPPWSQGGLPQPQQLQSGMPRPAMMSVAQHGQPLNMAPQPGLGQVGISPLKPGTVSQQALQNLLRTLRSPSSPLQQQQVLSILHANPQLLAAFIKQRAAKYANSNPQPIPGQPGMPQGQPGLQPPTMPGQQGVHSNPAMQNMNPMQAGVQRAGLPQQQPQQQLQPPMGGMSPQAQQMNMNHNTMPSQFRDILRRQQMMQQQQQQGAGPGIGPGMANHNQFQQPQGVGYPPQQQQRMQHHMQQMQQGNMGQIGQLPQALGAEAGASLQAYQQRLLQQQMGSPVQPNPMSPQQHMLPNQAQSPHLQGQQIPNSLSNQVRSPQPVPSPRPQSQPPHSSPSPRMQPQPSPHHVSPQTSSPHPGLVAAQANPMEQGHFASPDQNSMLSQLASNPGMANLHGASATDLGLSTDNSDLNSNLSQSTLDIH

SMILES	IC50 [1] [µM]	cell survival rate (%) at treatment with 10 μM, 786-O ([2]; 786-O cells) [%]	IC50 [2, 12] [µM]	IC50 [3, 13] [µM]	cell growth suppression effect on SMARCA2/A4 deficient cells [4]	cell survival rate (%) at treatment with 10 μM, H460 [5] [%]	IC50 [5] [µM]	cell survival rate (%) at treatment with 10 μM, TOV112D [6] [%]	IC50 [6] [µM]	cell survival rate (%) at treatment with 10 μM, H23 [7] [%]	IC50 [7] [µM]	IC50 [8, 14] [µM]	IC50 [9, 15] [µM]	cell growth suppression effect on SMARCB1 deficient cells [10]	cell survival rate (%) at treatment with 10 μM, DMS114 [1] [%]	IC50 ([1]; Homo sapiens, DMS-114, 144 h) [µM]	cell growth suppression effect on DMS114 cells [1]	IC50 ([2]; Homo sapiens, 786-0, 72 h) [µM]	viability at 10 µM [2, 16] [%]	IC50 ([5]; Homo sapiens, NCI-H460, 144 h) [µM]	further results
CNC(=O)Cn1cc(-c2ccc3c(c2)C(F)CC32NC(=O)N(CC(=O)N(Cc3ccc(F)cc3)[C@@H](C)C(F)(F)F)C2=O)cn1 (single isomer, unassigned) [Compound 3]	3.44	107	> 10	4.9	particularly selective and potent cell growth suppression effect	105	> 10	43	> 10	49	> 10	26.3	2.6	selective and potent Cell growth suppression effect	–	–	–	–	–	–	–
CC(=O)N1CCc2c(c(Nc3ccc(-c4cnn(C)c4)cc3F)nn2[C@@H]2CCOC2)C1 [Compound 13]	–	–	–	–	–	–	–	121	–	92	–	–	–	–	64	> 10	cell growth suppression effect	> 10	104	> 10	cell survival rate (%) at treatment with 10 μM, G-401 ([3]; G-401 cells): 78%; IC50 ([3]; Homo sapiens, G-401, 72 h, read-out: IC50 G-401, G-401 cells, cultured for 3 days, CellTiter-Glo cell survival): > 10 µM; viability at 10 µM ([5]; Homo sapiens, NCI-H460, 144 h): 102%; IC50 ([6]; Homo sapiens, TOV112D, 144 h): > 10 µM; IC50 ([7]; Homo sapiens, NCI-H23, 144 h): > 10 µM; IC50 ([8]; 144 h, read-out: JMU-RTK-2 + SMARCB1 IC50, JMU-RTK-2+SMARCB1 cells, cultured for 6 days, CellTiter-Glo): 8.1 µM; IC50 ([9]; 144 h, read-out: JMU-RTK-2 IC50, JMU-RTK-2 cells, cultured for 6 days, CellTiter-Glo): 2.8 µM
CNC(=O)Cn1cc(-c2ccc3c(c2)C(F)CC32NC(=O)N(CC(=O)N(Cc3ccc(F)cc3)[C@@H](C)C(F)(F)F)C2=O)cn1 (single isomer, unassigned) [Compound 2]	> 10	108	> 10	> 10	particularly selective and potent cell growth suppression effect	100	> 10	96	> 10	99	> 10	20.1	4.8	–	67	–	cell growth suppression effect	–	–	–	cell survival rate (%) at treatment with 10 μM, G-401 ([3]; G-401 cells): 62%
CCn1ncc(CN(C)C(=O)c2cc(-c3ccc(NC4CN(C)C4)c(C)n3)nc3ccc(Cl)cc23)c1C [Compound 19]	–	–	–	–	particularly selective and potent cell growth suppression effect	–	–	–	–	–	–	–	–	selective and potent Cell growth suppression effect	–	0.125	–	> 10	69	> 10	IC50 [11]: 0.017 µM; IC50 ([3]; Homo sapiens, G-401, 72 h, read-out: IC50 G-401): 0.08 µM; viability at 10 µM ([5]; Homo sapiens, NCI-H460, 144 h): 87%; IC50 ([6]; Homo sapiens, 144 h): 0.311 µM; IC50 ([7]; Homo sapiens, NCI-H23, 144 h): 0.692 µM
CNC(=O)Cn1cc(-c2ccc3c(c2)C(F)CC32NC(=O)N(CC(=O)N(Cc3ccc(F)cc3)[C@@H](C)C(F)(F)F)C2=O)cn1 (single isomer, unassigned) [Compound 1]	4.83	–	–	2.7	particularly selective and potent cell growth suppression effect	104	–	44	> 10	52	> 10	27.3	2.5	selective and potent Cell growth suppression effect	–	–	–	> 10	–	> 10	viability at 10 µM ([2]; Homo sapiens, 786-0, 72 h, read-out: cell survival rate (%) at treatment with 10 μM, 786-O, 786-O cells, 10 μM (maximum treatment concentration), 3 days): 104%
